{
  "source": "patent US11851692B2",
  "about": "“Method for preparing an antimycin compound produced by Streptomyces sp.4-7” (priority 2022, dated 2023)",
  "key": {"[1]": {"system": "Staphylococcus griseus (CGMCC 3.3789)", "test": "Oxford Cup method antifungal test, Botrytis cinerea", "type": "cell-based, Botrytis cinerea (CGMCC3.3789)", "settings": "result in words", "method": "(§1) Preparation of the test sample solution: The test sample was the pure compound I separated and purified in the above Example 1. An appropriate amount of sample was accurately weighed and mixed with DMSO to obtain a solution of the required concentration for testing the antifungal activity. The indicator bacteria used in this experiment were Botrytis cinerea (CGMCC3.3789) and Penicillium citrinum (ATCC1109).\n(§2) Oxford Cup method for antifungal test: 100 μL of spore suspension was spread evenly on PDA plates, and Oxford cups were placed in the center of the plates. 100 μL of compound solutions of different concentrations were added into the Oxford cups separately, the concentrations of the compound solutions were 32 μg/mL, 16 μg/mL, 8 μg/mL, 4 μg/mL, 2 μg/mL, 1 μg/mL, and 0.5 μg/mL. DMSO was used as a negative control, and prochloraz of the same concentration was used as a positive control. After incubation at 28° C. for 5 days, the growth of fungi was observed. Four culture plates were set up for each treatment, and the whole experiment was repeated three times."}, "[2]": {"test": "Oxford Cup method antifungal test, Botrytis cinerea", "type": "cell-based, Botrytis cinerea (CGMCC3.3789)", "settings": "Staphylococcus, CGMCC3, 120 h; Oxford Cup method, PDA plates, 28° C., 5 days; strain CGMCC 3.3789; read-out: minimum inhibitory concentration (MIC)", "method": "as §1, §2"}, "[3]": {"system": "Penicillium oryzae (ATCC 1109)", "test": "Oxford Cup method antifungal test, Penicillium citrinum", "type": "cell-based, Penicillium citrinum (ATCC1109)", "method": "as §1, §2"}},
  "data": [
    {"compound": "CC[C@@H](C)C[C@H]1C(=O)O[C@H](C)[C@H](NC(=O)c2cccc(NC=O)c2O)C(=O)O[C@@H](C)[C@@H]1CC(=O)C(C)C", "note": "[Compound I, Antimycin I]", "values": [
      {"measurement": "resistance activity against Botrytis cinerea (antifungal activity screening)", "setting": "[1]", "result": "significant resistance activity"},
      {"measurement": "MIC", "setting": "[2]", "result": 2, "unit": "µg/mL"},
      {"measurement": "MIC", "setting": "[3]; Penicillium, ATCC1109, 120 h, Oxford Cup method, PDA plates, 28° C., 5 days, strain ATCC 1109, read-out: minimum inhibitory concentration (MIC)", "result": 4, "unit": "µg/mL"},
      {"measurement": "resistance activity against Penicillium citrinum (antifungal activity screening)", "setting": "[3]; result in words", "result": "significant resistance activity"}
    ]}
  ]
}
